Reference: PubChem BioAssay AID228 (DTP/NCI, 2004)
Several values for one entry are separate records, joined by “and”; a condition that tells them apart may be missing. Equal values may be shown once. Inconclusive results are not listed.

Tested on: BDF1 mice, Friend leukemia sc, tumor weight T/C
Test: NCI In Vivo Anticancer Drug Screen. Data for tumor model Friend Virus Leukemia (Solid) (subcutaneous) in B6D2F1 (BDF1) mice
Conditions: endpoint: mean tumor weight, higher = larger tumour
Description: The antitumor activity of compounds was measured in mice bearing transplantable tumors. Survival or tumor size were measured and the results are expressed as the measurement made in the treated group (T) divided by the measurement made in the vehicle treated control group (C). The tumor model used in this assay is Friend Virus Leukemia (Solid) (subcutaneous) in B6D2F1 (BDF1) mice

[1] = dose: 31.0 mg/kg/injection, schedule: Q#A X022 (ip), vehicle: carboxymethylcellulose (CMC)
[2] = dose: 62.5 mg/kg/injection, schedule: Q#A X022 (ip), vehicle: carboxymethylcellulose (CMC)
[3] = dose: 125.0 mg/kg/injection, schedule: Q01DX011 (ip), vehicle: carboxymethylcellulose (CMC)
[4] = dose: 500.0 mg/kg/injection, schedule: Q01DX011 (ip), vehicle: carboxymethylcellulose (CMC)
[5] = dose: 15.0 mg/kg/injection, schedule: Q01DX011 (ip), vehicle: carboxymethylcellulose (CMC)
[6] = dose: 30.0 mg/kg/injection, schedule: Q01DX011 (ip), vehicle: carboxymethylcellulose (CMC)
[7] = dose: 62.5 mg/kg/injection, schedule: Q01DX011 (ip), vehicle: carboxymethylcellulose (CMC)

O=C(O)c1cc(O)c(O)c(O)c1
T/C (dose: 50.0 mg/kg/injection, schedule: Q01DX011 (ip), vehicle: alkali diluted with saline): 85 % of control | T/C (dose: 100.0 mg/kg/injection, schedule: Q01DX011 (ip), vehicle: alkali diluted with saline): 79 % of control | T/C (dose: 200.0 mg/kg/injection, schedule: Q01DX011 (ip), vehicle: alkali diluted with saline): 84 % of control | T/C (dose: 400.0 mg/kg/injection, schedule: Q01DX011 (ip), vehicle: alkali diluted with saline): 95 % of control

COC(=O)/C=C\C(=O)O (tested in a mixture with another compound)
T/C (dose: 14.0 mg/kg/injection, schedule: Q#A X022 (ip), vehicle: carboxymethylcellulose (CMC)): 88 % of control | T/C (dose: 28.0 mg/kg/injection, schedule: Q#A X022 (ip), vehicle: carboxymethylcellulose (CMC)): 92 % of control | T/C [1]: 68 % of control | T/C (dose: 56.0 mg/kg/injection, schedule: Q#A X022 (ip), vehicle: carboxymethylcellulose (CMC)): 49 % of control | T/C [2]: 36 % of control

O=C(COc1cc(Cl)c(Cl)cc1Cl)OCCOc1cc(Cl)c(Cl)cc1Cl
T/C (dose: 11.25 mg/kg/injection, schedule: Q01DX011 (ip), vehicle: carboxymethylcellulose (CMC)): 91 % of control | T/C (dose: 22.5 mg/kg/injection, schedule: Q01DX011 (ip), vehicle: carboxymethylcellulose (CMC)): 112 % of control | T/C (dose: 45.0 mg/kg/injection, schedule: Q01DX011 (ip), vehicle: carboxymethylcellulose (CMC)): 117 % of control | T/C (dose: 90.0 mg/kg/injection, schedule: Q01DX011 (ip), vehicle: carboxymethylcellulose (CMC)): 65 % of control

OCCc1ccccc1
T/C (dose: 62.0 mg/kg/injection, schedule: Q01DX011 (ip), vehicle: carboxymethylcellulose (CMC)): 83 % of control | T/C [3]: 63 % of control | T/C (dose: 250.0 mg/kg/injection, schedule: Q01DX011 (ip), vehicle: carboxymethylcellulose (CMC)): 57 % of control | T/C [4]: 51 % of control

Cc1ccc(N2CCN(CCCN3CCN(c4ccc(Cl)cc4)CC3)CC2)cc1
T/C (dose: 7.5 mg/kg/injection, schedule: Q01DX011 (ip), vehicle: carboxymethylcellulose (CMC)): 80 % of control | T/C [5]: 61 % of control | T/C [6]: 55 % of control and 50 % of control | T/C (dose: 60.0 mg/kg/injection, schedule: Q01DX011 (ip), vehicle: carboxymethylcellulose (CMC)): 49 % of control

O=P(c1ccccc1)(N1CC1)N1CC1
T/C (dose: 6.0 mg/kg/injection, schedule: Q01DX011 (ip), vehicle: saline): 106 % of control | T/C (dose: 12.0 mg/kg/injection, schedule: Q01DX011 (ip), vehicle: saline): 124 % of control | T/C (dose: 24.0 mg/kg/injection, schedule: Q01DX011 (ip), vehicle: saline): 80 % of control

CC(Cl)CN(Cc1cc(O)c(CN(CC(C)Cl)CC(C)Cl)cc1O)CC(C)Cl (stereo not given)
T/C [7]: 66 % of control | T/C [3]: 44 % of control

CC1CCOS(=O)O1 (stereo not given)
T/C (dose: 10.0 mg/kg/injection, schedule: Q01DX011 (ip), vehicle: carboxymethylcellulose (CMC)): 123 % of control | T/C (dose: 20.0 mg/kg/injection, schedule: Q01DX011 (ip), vehicle: carboxymethylcellulose (CMC)): 84 % of control | T/C (dose: 40.0 mg/kg/injection, schedule: Q01DX011 (ip), vehicle: carboxymethylcellulose (CMC)): 72 % of control | T/C (dose: 80.0 mg/kg/injection, schedule: Q01DX011 (ip), vehicle: carboxymethylcellulose (CMC)): 32 % of control

Nc1ccc2ccccc2c1N=Nc1ccccc1
T/C [7]: 66 % of control | T/C [3]: 58 % of control | T/C [4]: 25 % of control and 27 % of control

Clc1ccc(C(c2ccccc2Cl)C(Cl)Cl)cc1 (stereo not given)
T/C (dose: 375.0 mg/kg/injection, schedule: Q01DX011 (sc), vehicle: steriod suspending solution): 163 % of control | T/C (dose: 500.0 mg/kg/injection, schedule: Q01DX011 (sc), vehicle: steriod suspending solution): 210 % of control | T/C (dose: 750.0 mg/kg/injection, schedule: Q01DX011 (sc), vehicle: steriod suspending solution): 155 % of control

CC(=O)OCC(=O)[C@@]1(O)CC[C@H]2[C@@H]3CCC4=CC(=O)CC[C@]4(C)[C@H]3[C@@H](O)C[C@@]21C
T/C (dose: 2.25 mg/kg/injection, schedule: Q01DX011 (sc), vehicle: steriod suspending solution): 267 % of control | T/C (dose: 8.5 mg/kg/injection, schedule: Q01DX011 (sc), vehicle: steriod suspending solution): 73 % of control | T/C (dose: 9.0 mg/kg/injection, schedule: Q01DX011 (sc), vehicle: steriod suspending solution): 88 % of control | T/C (dose: 17.0 mg/kg/injection, schedule: Q01DX011 (sc), vehicle: steriod suspending solution): 105 % of control | T/C (dose: 30.0 mg/kg/injection, schedule: Q01DX011 (sc), vehicle: steriod suspending solution): 44 % of control | T/C (dose: 60.0 mg/kg/injection, schedule: Q01DX011 (sc), vehicle: steriod suspending solution): 32 % of control | T/C (dose: 68.0 mg/kg/injection, schedule: Q01DX011 (sc), vehicle: steriod suspending solution): 60 % of control | T/C (dose: 90.0 mg/kg/injection, schedule: Q01DX011 (sc), vehicle: steriod suspending solution): 29 % of control

Cc1cc(N(CCCl)CCCl)ccc1N=Nc1ccccc1C(=O)O
T/C (dose: 5.0 mg/kg/injection, schedule: Q01DX011 (ip), vehicle: saline): 111 % of control | T/C (dose: 7.5 mg/kg/injection, schedule: Q01DX011 (ip), vehicle: saline): 111 % of control | T/C (dose: 10.0 mg/kg/injection, schedule: Q01DX011 (ip), vehicle: saline): 105 % of control | T/C (dose: 15.0 mg/kg/injection, schedule: Q01DX011 (ip), vehicle: saline): 60 % of control and 73 % of control | T/C (dose: 25.0 mg/kg/injection, schedule: Q01DX011 (ip), vehicle: saline): 21 % of control | T/C (dose: 30.0 mg/kg/injection, schedule: Q01DX011 (ip), vehicle: saline): 20 % of control

O=[As]O
T/C (dose: 1.6 mg/kg/injection, schedule: Q01DX011 (ip), vehicle: carboxymethylcellulose (CMC)): 78 % of control | T/C (dose: 3.25 mg/kg/injection, schedule: Q01DX011 (ip), vehicle: carboxymethylcellulose (CMC)): 77 % of control | T/C (dose: 6.5 mg/kg/injection, schedule: Q01DX011 (ip), vehicle: carboxymethylcellulose (CMC)): 98 % of control | T/C (dose: 13.0 mg/kg/injection, schedule: Q01DX011 (ip), vehicle: carboxymethylcellulose (CMC)): 46 % of control

CC(C)Sc1nc(N)nc2nc[nH]c12
T/C (dose: 3.0 mg/kg/injection, schedule: Q01DX011 (ip), vehicle: carboxymethylcellulose (CMC)): 97 % of control | T/C (dose: 25.0 mg/kg/injection, schedule: Q01DX011 (ip), vehicle: carboxymethylcellulose (CMC)): 14 % of control | T/C (dose: 50.0 mg/kg/injection, schedule: Q01DX011 (ip), vehicle: carboxymethylcellulose (CMC)): 2 % of control

NNC(=O)c1ccncc1
T/C [5]: 80 % of control | T/C [6]: 75 % of control | T/C (dose: 121.0 mg/kg/injection, schedule: Q01DX011 (ip), vehicle: carboxymethylcellulose (CMC)): 55 % of control

NC(=O)/C=C\C(=O)O (tested in a mixture with another compound)
T/C [1]: 85 % of control | T/C [2]: 75 % of control | T/C (dose: 125.0 mg/kg/injection, schedule: Q#A X022 (ip), vehicle: carboxymethylcellulose (CMC)): 65 % of control | T/C (dose: 250.0 mg/kg/injection, schedule: Q#A X022 (ip), vehicle: carboxymethylcellulose (CMC)): 58 % of control

COc1ccc2c(c1OC)C(=O)O[C@@H]2[C@H]1c2c(cc3c(c2OC)OCO3)CCN1C
T/C (dose: 50.0 mg/kg/injection, schedule: Q01DX011 (ip), vehicle: saline): 110 % of control | T/C (dose: 100.0 mg/kg/injection, schedule: Q01DX011 (ip), vehicle: saline): 99 % of control | T/C (dose: 200.0 mg/kg/injection, schedule: Q01DX011 (ip), vehicle: saline): 85 % of control

CC(CCc1cccc2ccccc12)(C(=O)O)C(=O)O
T/C (dose: 100.0 mg/kg/injection, schedule: Q01DX011 (ip), vehicle: carboxymethylcellulose (CMC)): 92 % of control

CN(C)c1ccc(C(=C(c2ccc(N(C)C)cc2)c2ccc(N(C)C)cc2)c2ccc(N(C)C)cc2)cc1
T/C (dose: 3.0 mg/kg/injection, schedule: Q01DX011 (ip), vehicle: olive oil, sesame oil, peanut oil): 179 % of control | T/C (dose: 6.0 mg/kg/injection, schedule: Q01DX011 (ip), vehicle: olive oil, sesame oil, peanut oil): 178 % of control and 237 % of control | T/C (dose: 12.5 mg/kg/injection, schedule: Q01DX011 (ip), vehicle: olive oil, sesame oil, peanut oil): 178 % of control | T/C (dose: 50.0 mg/kg/injection, schedule: Q01DX011 (ip), vehicle: olive oil, sesame oil, peanut oil): 65 % of control and 63 % of control | T/C (dose: 200.0 mg/kg/injection, schedule: Q01DX011 (ip), vehicle: olive oil, sesame oil, peanut oil): 55 % of control | T/C (dose: 300.0 mg/kg/injection, schedule: Q01DX011 (ip), vehicle: olive oil, sesame oil, peanut oil): 82 % of control | T/C (dose: 400.0 mg/kg/injection, schedule: Q01DX011 (ip), vehicle: olive oil, sesame oil, peanut oil): 80 % of control
